In patent US9113629B2, “4-amino-6-(4-substituted-phenyl)-picolinates and 6-amino-2-(4-substituted-phenyl)-pyrimidine-4-carboxylates and their use as herbicides” (DOW AGROSCIENCES LLC, priority 2013, dated 2015):
Like-named read-outs stand apart in the source and are kept apart here.

Columns and labels:
[1] = tested on: Key Grass and Sedge Weeds as well as Grass Crops; assay: Post-emergent Test II herbicidal activity (Table 6); type: in vivo; settings: post-emergence, 336 h; for pest or weed control at 70 g/ha: application rate 70 g ai/ha; for pest or weed control at 140 g/ha: application rate 140 g ai/ha
Procedure, shortened: (§1)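 Greenhouse post-emergent assay: seedlings (first/second true leaf) in Metro-Mix 360 were sprayed at 187 L/ha at a top rate plus twofold dilutions down to 1/16×; solvent-blank controls were included. Percent visual injury was read at 14 d.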

[2] = tested on: Key Broadleaf Weed and Crop Species; assay: Post-emergent Test II herbicidal activity (Table 5); type: in vivo; settings: post-emergence, 336 h, post-emergent, 14 days after application; for pest or weed control at 70 g/ha: 70 g ai/ha; for pest or weed control at 140 g/ha: 140 g ai/ha
Procedure, shortened: as §1

[3] = CYPES: yellow nutsedge (Cyperus esculentus), read-out: Visual Growth Reduction (%) 14 Days After Application, CYPES
[4] = DIGSA: crabgrass (Digitaria sanguinalis), read-out: Visual Growth Reduction (%) 14 Days After Application, DIGSA
[5] = ECHCG: barnyardgrass (Echinochloa crus-galli), read-out: Visual Growth Reduction (%) 14 Days After Application, ECHCG
[6] = ORYSA: rice (Oryza sativa), read-out: Visual Growth Reduction (%) 14 Days After Application, ORYSA
[7] = SETFA: giant foxtail (Setaria faberi), read-out: Visual Growth Reduction (%) 14 Days After Application, SETFA
[8] = SORVU: grain sorghum (Sorghum vulgare), read-out: Visual Growth Reduction (%) 14 Days After Application, SORVU
[9] = TRZSS (wheat, Triticum aestivum), read-out: Visual Growth Reduction (%) 14 Days After Application, TRZSS
[10] = ZEAMX: maize, corn (Zea mays), read-out: Visual Growth Reduction (%) 14 Days After Application, ZEAMX
[11] = ABUTH: velvetleaf (Abutilon theophrasti), read-out: Visual Growth Reduction (%) 14 Days After Application ABUTH
[12] = AMARE: redroot pigweed (Amaranthus retroflexus), read-out: Visual Growth Reduction (%) 14 Days After Application AMARE
[13] = BRSNN: oilseed-rape, canola (Brassica napus), read-out: Visual Growth Reduction (%) 14 Days After Application BRSNN
[14] = CHEAL: lambsquarters (Chenopodium album), read-out: Visual Growth Reduction (%) 14 Days After Application CHEAL
[15] = EPHHL: wild poinsettia (Euphorbia heterophylla), read-out: Visual Growth Reduction (%) 14 Days After Application EPHHL
[16] = HELAN: sunflower (Helianthus annuus), read-out: Visual Growth Reduction (%) 14 Days After Application HELAN
[17] = VIOTR: wild pansy (Viola tricolor), read-out: Visual Growth Reduction (%) 14 Days After Application VIOTR

C=Cc1c(N)nc(-c2ccc(C(F)(F)F)c(F)c2)nc1C(=O)O [Compound 32, 6-Amino-2-(3-fluoro-4-(trifluoromethyl)phenyl)-5-vinylpyrimidine-4-carboxylic acid]
melting point: 168 to 171 °C
pest or weed control at 70 g/ha [1, 3]: 0 to 29%
pest or weed control at 140 g/ha [1, 3]: 45 to 59%
pest or weed control at 70 g/ha [1, 4]: 0 to 29%
pest or weed control at 140 g/ha [1, 4]: 0 to 29%
pest or weed control at 70 g/ha [1, 5]: 75 to 84%
pest or weed control at 140 g/ha [1, 5]: 75 to 84%
pest or weed control at 70 g/ha [1, 6]: 0 to 29%
pest or weed control at 140 g/ha [1, 6]: 0 to 29%
pest or weed control at 70 g/ha [1, 7]: 0 to 29%
pest or weed control at 140 g/ha [1, 7]: 0 to 29%
pest or weed control at 70 g/ha [1, 8]: 60 to 74%
pest or weed control at 140 g/ha [1, 8]: 60 to 74%
pest or weed control at 70 g/ha [1, 9]: 0 to 29%
pest or weed control at 140 g/ha [1, 9]: 0 to 29%
pest or weed control at 70 g/ha [1, 10]: 45 to 59%
pest or weed control at 140 g/ha [1, 10]: 60 to 74%
pest or weed control at 70 g/ha [2, 11]: 60 to 74%
pest or weed control at 140 g/ha [2, 11]: 60 to 74%
pest or weed control at 70 g/ha [2, 12]: 75 to 84%
pest or weed control at 140 g/ha [2, 12]: 95 to 100%
pest or weed control at 70 g/ha [2, 13]: 0 to 29%
pest or weed control at 140 g/ha [2, 13]: 45 to 59%
pest or weed control at 70 g/ha [2, 14]: 95 to 100%
pest or weed control at 140 g/ha [2, 14]: 95 to 100%
pest or weed control at 70 g/ha [2, 15]: 95 to 100%
pest or weed control at 140 g/ha [2, 15]: 95 to 100%
pest or weed control at 70 g/ha [2, 16]: 85 to 94%
pest or weed control at 140 g/ha [2, 16]: 85 to 94%
pest or weed control at 70 g/ha [2, 17]: 0 to 29%
pest or weed control at 140 g/ha [2, 17]: 0 to 29%
